Test results as given in ChEMBL document CHEMBL5154646, “Structure-guided optimization of 1H-imidazole-2-carboxylic acid derivatives affording potent VIM-Type metallo-β-lactamase inhibitors” (Eur J Med Chem, 2022).

Legend:
Pseudomonas aeruginosa [1] = assay: Potentiation of meropenem-induced antibacterial activity against Pseudomonas aeruginosa 5621 expressing VIM-2 assessed as fold reduction in meropenem MIC at 100 ug/ml incubated for 18 to 20 hrs by CLSI based broth microtiter dilution method; assay type: functional; conditions: dose 100 µg/ml; time 18-20 hrs
[2] = Inhibition of bacterial NDM-1 (1 to 270 residues) expressed in Escherichia coli Transetta (DE3) using FC-5 as substrate preincubated with enzyme for 10 mins followed by substrate addition by fluorescence based analysis; design: species or system Bacteria
Escherichia coli [3] = assay: Potentiation of meropenem-induced antibacterial activity against Escherichia coli C1541 expressing IMP-1 assessed as fold reduction in meropenem MIC at 10 ug/ml incubated for 18 to 20 hrs by CLSI based broth microtiter dilution method; assay type: functional; conditions: dose 10 µg/ml; time 18-20 hrs
Escherichia coli [4] = assay: Potentiation of meropenem-induced antibacterial activity against Escherichia coli C1580 expressing VIM-2 assessed as meropenem MIC at 10 ug/ml incubated for 18 to 20 hrs by CLSI based broth microtiter dilution method (reference value: 32 ug/ml); assay type: functional; conditions: dose 10 µg/ml, time 18-20 hrs
[5] = Inhibition of bacterial recombinant full length C-terminal-TEV-His6-tagged VIM-1 expressed in Escherichia coli Transetta using FC-5 as substrate preincubated with enzyme for 10 mins followed by substrate addition by fluorescence based analysis; design: species or system Bacteria
Escherichia coli [6] = assay: Potentiation of meropenem-induced antibacterial activity against Escherichia coli C1580 expressing VIM-2 assessed as fold reduction in meropenem MIC at 10 ug/ml incubated for 18 to 20 hrs by CLSI based broth microtiter dilution method; assay type: functional; conditions: dose 10 µg/ml; time 18-20 hrs
Escherichia coli [7] = assay: Potentiation of meropenem-induced antibacterial activity against Escherichia coli C1542 expressing VIM-2 assessed as meropenem MIC at 10 ug/ml incubated for 18 to 20 hrs by CLSI based broth microtiter dilution method (reference value: 16 ug/ml); assay type: functional; conditions: dose 10 µg/ml, time 18-20 hrs
[8] = Inhibition of bacterial VIM-2 (27 to 266 residues) expressed in Escherichia coli Transetta (DE3) using FC-5 as substrate preincubated with enzyme for 10 mins followed by substrate addition by fluorescence based analysis; design: species or system Bacteria
Escherichia coli [9] = assay: Potentiation of meropenem-induced antibacterial activity against Escherichia coli C1542 expressing VIM-2 assessed as fold reduction in meropenem MIC at 10 ug/ml incubated for 18 to 20 hrs by CLSI based broth microtiter dilution method; assay type: functional; conditions: dose 10 µg/ml; time 18-20 hrs
Escherichia coli [10] = assay: Potentiation of meropenem-induced antibacterial activity against Escherichia coli C1541 expressing VIM-2 assessed as meropenem MIC at 10 ug/ml incubated for 18 to 20 hrs by CLSI based broth microtiter dilution method (reference value: 16 ug/ml); assay type: functional; conditions: dose 10 µg/ml, time 18-20 hrs
Escherichia coli [11] = assay: Potentiation of meropenem-induced antibacterial activity against Escherichia coli C1541 expressing VIM-2 assessed as fold reduction in meropenem MIC at 10 ug/ml incubated for 18 to 20 hrs by CLSI based broth microtiter dilution method; assay type: functional; conditions: dose 10 µg/ml; time 18-20 hrs
Escherichia coli [12] = assay: Potentiation of meropenem-induced antibacterial activity against Escherichia coli C1541 expressing IMP-1 assessed as meropenem MIC at 10 ug/ml incubated for 18 to 20 hrs by broth microtiter dilution method (reference value: 32 ug/ml); assay type: functional; conditions: dose 10 µg/ml, time 18-20 hrs
Pseudomonas aeruginosa [13] = assay: Potentiation of meropenem-induced antibacterial activity against Pseudomonas aeruginosa 5621 expressing VIM-2 assessed as meropenem MIC at 100 ug/ml incubated for 18 to 20 hrs in presence of meropenem by CLSI based broth microtiter dilution method (reference value: 64 ug/ml); assay type: functional; conditions: dose 100 µg/ml, time 18-20 hrs
[14] = Inhibition of bacterial IMP-1 (1 to 246 residues) expressed in Escherichia coli Transetta (DE3) using FC-5 as substrate preincubated with enzyme for 10 mins followed by substrate addition by fluorescence based analysis; design: species or system Bacteria
[15] = Inhibition of bacterial recombinant full length N-terminal-TEV-His6-tagged VIM-5 expressed in Escherichia coli Transetta using FC-5 as substrate preincubated with enzyme for 10 mins followed by substrate addition by fluorescence based analysis; design: species or system Bacteria
Pseudomonas aeruginosa [16] = assay: Potentiation of meropenem-induced antibacterial activity against Pseudomonas aeruginosa W35 expressing VIM-2 assessed as meropenem MIC at 100 ug/ml incubated for 18 to 20 hrs in presence of meropenem by CLSI based broth microtiter dilution method (reference value: 64 ug/ml); assay type: functional; conditions: dose 100 µg/ml, time 18-20 hrs
Pseudomonas aeruginosa [17] = assay: Potentiation of meropenem-induced antibacterial activity against Pseudomonas aeruginosa W35 expressing VIM-2 assessed as fold reduction in meropenem MIC at 100 ug/ml incubated for 18 to 20 hrs by CLSI based broth microtiter dilution method; assay type: functional; conditions: dose 100 µg/ml; time 18-20 hrs

IC50 [2] [µM] | MIC (Escherichia coli [4]) [µg/mL] | IC50 [5] [µM] | MIC (Escherichia coli [7]) [µg/mL] | IC50 [8] [µM] | MIC (Escherichia coli [10]) [µg/mL] | MIC (Escherichia coli [12]) [µg/mL] | MIC (Pseudomonas aeruginosa [13]) [µg/mL] | IC50 [14] [µM] | IC50 [15] [µM] | MIC (Pseudomonas aeruginosa [16]) [µg/mL] | Compound | fold change (FC) (Pseudomonas aeruginosa [1]) | fold change (FC) (Escherichia coli [3]) | fold change (FC) (Escherichia coli [6]) | fold change (FC) (Escherichia coli [9]) | fold change (FC) (Escherichia coli [11]) | fold change (FC) (Pseudomonas aeruginosa [17])
227 | 1 | 8.69 | < 0.25 | 0.29 | < 0.25 | 32 | 64 | 30.1 | 0.12 | 32 | N#Cc1ccc(Cn2ccnc2C(=O)O)cc1 | 1 | 1 | 32 | >64 | >64 | 2
157 | 1 | 13 | < 0.25 | 0.38 | 0.5 | 32 | 64 | 10.9 | 0.84 | 16 | COc1ccc(Cn2ccnc2C(=O)O)cc1 | 1 | 1 | 32 | >64 | 32 | 4
> 300 | – | 18 | – | 6.89 | – | – | – | 114 | 64 | – | CSCn1ccnc1C(=O)O | – | – | – | – | – | –
131 | 1 | 1.89 | < 0.25 | 0.16 | 0.5 | 32 | 64 | 217 | 1.04 | 64 | Nc1nc2c(Cn3ccnc3C(=O)O)cccc2s1 | 1 | 1 | 32 | >64 | 32 | 1
111 | 4 | 24.9 | 4 | 0.43 | 2 | 32 | 64 | 20.3 | 2.47 | 32 | O=C(O)c1nccn1Cc1cc(Br)cs1 | 1 | 1 | 8 | 4 | 8 | 2
> 300 | – | 11.7 | – | 1.55 | – | – | – | 10.3 | 21 | – | O=C(O)c1nccn1Cc1ccco1 | – | – | – | – | – | –
114 | – | 13.9 | – | 2.7 | – | – | – | 30.2 | 0.065 | – | O=C(O)c1nccn1Cc1ccc([N+](=O)[O-])cc1 | – | – | – | – | – | –
> 300 | – | > 300 | – | 3.47 | – | – | – | > 300 | 139 | – | Cc1ccc(Cn2ccnc2C(=O)O)cc1 | – | – | – | – | – | –
> 300 | – | > 300 | – | 15.8 | – | – | – | > 300 | 14.9 | – | O=C(O)c1nccn1Cc1ccc(F)c(F)c1 | – | – | – | – | – | –
121 | – | > 300 | – | 3.23 | – | – | – | 111 | 9.02 | – | O=C(O)c1nccn1Cc1ccc(Cl)s1 | – | – | – | – | – | –
> 300 | – | 17.5 | – | 0.56 | – | – | – | 53.7 | 0.28 | – | O=C(O)c1nccn1Cc1ccc(C(F)(F)F)cc1 | – | – | – | – | – | –
> 300 | – | > 300 | – | 10.7 | – | – | – | 1.5 | 31.9 | – | Cc1cn(Cc2ccccc2)c(C(=O)O)n1 | – | – | – | – | – | –
16.4 | – | 2.83 | – | 0.014 | – | – | – | 9.25 | 0.052 | – | O=C(O)c1nccn1Cc1ccc(Cl)c(Cl)c1 | – | – | – | – | – | –
> 300 | – | > 300 | – | > 300 | – | – | – | > 300 | > 300 | – | NCCn1ccnc1C(=O)O | – | – | – | – | – | –
> 300 | – | > 300 | – | 3.58 | – | – | – | > 300 | 18.9 | – | O=C(O)c1nccn1Cc1cccc([N+](=O)[O-])c1 | – | – | – | – | – | –
> 300 | – | > 300 | – | 11.5 | – | – | – | 17.8 | > 300 | – | O=C(O)c1nc(C2CC2)cn1Cc1ccccc1 | – | – | – | – | – | –
> 300 | – | 132 | – | 5.07 | – | – | – | > 300 | 30.3 | – | O=C(O)c1nccn1Cc1ccsc1 | – | – | – | – | – | –
> 300 | – | 50 | – | 2.67 | – | – | – | 100 | 28.6 | – | O=C(O)c1nccn1Cc1cccs1 | – | – | – | – | – | –

The next lines start with the compound.

Compound | IC50 [2] [µM] | MIC (Escherichia coli [4]) [µg/mL] | IC50 [5] [µM] | MIC (Escherichia coli [7]) [µg/mL] | IC50 [8] [µM] | MIC (Escherichia coli [10]) [µg/mL] | MIC (Escherichia coli [12]) [µg/mL] | MIC (Pseudomonas aeruginosa [13]) [µg/mL] | IC50 [14] [µM] | IC50 [15] [µM] | MIC (Pseudomonas aeruginosa [16]) [µg/mL] | fold change (FC) (Pseudomonas aeruginosa [1]) | fold change (FC) (Escherichia coli [3]) | fold change (FC) (Escherichia coli [6]) | fold change (FC) (Escherichia coli [9]) | fold change (FC) (Escherichia coli [11]) | fold change (FC) (Pseudomonas aeruginosa [17])
O=C(O)c1ncc(-c2ccccc2)n1Cc1ccccc1 | 59.2 | – | 4.31 | 1 | 0.015 | 0.5 | 32 | – | > 300 | 0.33 | – | – | 1 | – | 16 | 32 | –
COCCn1ccnc1C(=O)O | > 300 | – | 272 | – | 15.5 | – | – | – | > 300 | 101 | – | – | – | – | – | – | –
O=C(O)c1nccn1C1COC1 | > 300 | – | > 300 | – | > 300 | – | – | – | > 300 | > 300 | – | – | – | – | – | – | –
CN(C)CCCn1ccnc1C(=O)O | > 300 | – | > 300 | – | > 300 | – | – | – | > 300 | > 300 | – | – | – | – | – | – | –
Nn1ccnc1C(=O)O | > 300 | – | > 300 | – | > 300 | – | – | – | > 300 | 30.6 | – | – | – | – | – | – | –
CS(=O)(=O)Cn1ccnc1C(=O)O | > 300 | – | > 300 | – | 33.6 | – | – | – | > 300 | 249 | – | – | – | – | – | – | –
C[S+]([O-])Cn1ccnc1C(=O)O (stereo not given) | > 300 | – | > 300 | – | 64.1 | – | – | – | > 300 | > 300 | – | – | – | – | – | – | –
O=C(O)c1nccn1C1CCCC1 | > 300 | – | 76.9 | – | 70.4 | – | – | – | > 300 | > 300 | – | – | – | – | – | – | –
O=C(O)c1nccn1CCn1ccnn1 | > 300 | – | > 300 | – | 6.68 | – | – | – | > 300 | 47.3 | – | – | – | – | – | – | –
C=CCCn1ccnc1C(=O)O | > 300 | 32 | 14.8 | 8 | 1.05 | 16 | 32 | – | > 300 | 4.72 | – | – | 1 | 1 | 2 | 1 | –
Cn1nnnc1SCCn1ccnc1C(=O)O | > 300 | – | 45.7 | – | 2.13 | – | – | – | 160 | 16.5 | – | – | – | – | – | – | –
CC(O)Cn1ccnc1C(=O)O (stereo not given) | > 300 | – | > 300 | – | > 300 | – | – | – | > 300 | > 300 | – | – | – | – | – | – | –
O=C(O)c1nc(-c2ccccc2)cn1Cc1ccccc1 | > 300 | – | > 300 | – | 79.1 | – | – | – | 9.29 | 48.3 | – | – | – | – | – | – | –
CN(C)CCn1ccnc1C(=O)O | > 300 | – | > 300 | – | > 300 | – | – | – | > 300 | > 300 | – | – | – | – | – | – | –
C=CCCn1c(C)cnc1C(=O)O | 144 | 8 | 37.3 | 2 | 0.8 | 1 | 32 | – | 48.6 | 3.77 | – | – | 1 | 4 | 8 | 16 | –
CC(C)Cn1ccnc1C(=O)O | > 300 | – | 22.9 | – | 1.1 | – | – | – | > 300 | 7.02 | – | – | – | – | – | – | –
